Results as given in US20070269451A1, “Nucleic Acid Vaccination” (priority 1999, published 2007).
Entries after “also recorded” stand apart in the source; their conditions may differ.

Experiments:
[1] = tested on: anti-MUC1 antibody HMFG1; experiment: ELISA binding of anti-MUC1 antibody HMFG1 to synthetic MUC1 VNTR peptides; parameters: key: +++ indicates strong binding; ++ indicates fair binding; + indicates weak binding; − indicates no significant binding; conditions: peptide coated 50 μg/ml to 25 ng/ml; semiquantitative scale; absorbance at 490 nm
From the text: (§1) Synthetic peptides were designed containing mutations at the glycosylation sites. Particular attention was focused on substitutions at the threonine residue in this sequence (T11). Table 1 below indicates the peptides that were designed and their mutated glycosylation sites. Peptides containing two identical copies of the designed VNTR were synthesised at Genemed Synthesis Inc (San Francisco, Calif.). These peptides were then screened for their ability to bind to a number of anti-MUC1 monoclonal antibodies in an ELISA.
(§2) Peptides were prepared as aqueous solutions in 50 mM sodium bicarbonate buffer pH9.6 and coated onto Nunc Maxisorp plates at 4° C. overnight at a range of concentrations between 50 μg/ml and 25 ng/ml. After extensive washing with TBS-Tween (Tris-buffered saline, pH7.4 containing 0.05% Tween20), the plates were blocked with blocking solution (3% w/v bovine serum albumin in TBS-Tween) for 2 hours at room temperature. Anti-MUC1 antibodies HMFG1 (Novocastra, Newcastle, UK), HMFG2 (Novocastra), SM3 (Girling et al, 1989, Int J Cancer 43:1072-1076) and ATR1 (Bynum et al, 1995, Hybridoma 14:587-591) were diluted in blocking solution, added to the plate and incubated at room temperature for one hour. After washing, bound antibody was labelled by incubation with HRP-conjugated anti-mouse IgG (P260, Dako, Denmark) at 1/2000 dilution in blocking buffer. The plate was washed again and bound conjugate detected using Fast OPD colour reagents (Sigma, Poole, UK). The reaction was stopped by the addition of 3M sulphuric acid, and the OPD product quantitated by measuring the absorbance at 490 nm.
(§3) The ELISA signal for each antibody and peptide combination is ranked according to a semiquantitative scale, where +++ indicates strong binding, ++ indicates fair binding, + indicates weak binding, and − indicates no significant binding.

[2] = tested on: anti-MUC1 antibody ATR1; experiment: ELISA binding of anti-MUC1 antibody ATR1 to synthetic MUC1 VNTR peptides; parameters: key: +++ indicates strong binding; ++ indicates fair binding; + indicates weak binding; − indicates no significant binding; conditions: peptide coated 50 μg/ml to 25 ng/ml; semiquantitative scale; absorbance at 490 nm
From the text: as §1, §2, §3

[3] = tested on: anti-MUC1 antibody SM3; experiment: ELISA binding of anti-MUC1 antibody SM3 to synthetic MUC1 VNTR peptides; parameters: key to ELISA signal, Antibody SM3: +++ indicates strong binding; ++ indicates fair binding; + indicates weak binding; − indicates no significant binding; conditions: for ELISA signal, Antibody SM3: peptide coated 50 μg/ml to 25 ng/ml, semiquantitative scale, absorbance at 490 nm; for binding for the SM3 antibody (in words): Table 2
From the text: as §1, §2, §3

[4] = tested on: antibody SM3; experiment: Antibody binding curve for the mutant polypeptides (SM3 ELISA, FIG. 4); conditions: peptide coated at 3 ug/ml
Method: as §2
The polypeptides described in table 1 above were again used in this experiment. The methodology was essentially similar to Example 1 except that peptides were coated onto an ELISA plate at a fixed concentration of 3 ug/ml, and different concentrations of antibody SM3 were applied.

[5] = tested on: anti-MUC1 antibody HMFG2; experiment: ELISA binding of anti-MUC1 antibody HMFG2 to synthetic MUC1 VNTR peptides; parameters: key: +++ indicates strong binding; ++ indicates fair binding; + indicates weak binding; − indicates no significant binding; conditions: peptide coated 50 μg/ml to 25 ng/ml; semiquantitative scale; absorbance at 490 nm
From the text: as §1, §2, §3

[6] = different concentrations of SM3

Substance	ELISA signal, Antibody HMFG1 [1]	ELISA signal, Antibody ATR1 [2]	ELISA signal, Antibody SM3 [3]	SM3 antibody binding pattern / affinity across a range of antibody concentrations [4, 6]	ELISA signal, Antibody HMFG2 [5]	binding for the SM3 antibody (in words) [3]	SM3 antibody binding pattern / affinity across a range of antibody concentrations ([4]; different concentrations of SM3, listed as Mut 5A)
Ac-(PAHGVVAAPDNRPAPGAVAP)2-NH2 [Mut5N]	−	+++	−	substantially the same results as those shown for Mut5W; also recorded: essentially the same as those shown for Mut5W	−		
Ac-(PAHGVVAAPDIRPAPGAVAP)2-NH2 [Mut5I]	++	++	+++	does little to reduce the affinity	+++	maintain binding	
Ac-(PAHGVVAAPDTRPAPGAVAP)2-NH2 [Mut4]	++	+++	+++		+++		
Ac-(PAHGVVAAPDPRPAPGAVAP)2-NH2 [Mut5P]	+	+	−	substantially the same results as those shown for Mut5W; also recorded: essentially the same as those shown for Mut5W	−		
Ac-(PAHGVVAAPDARPAPGAVAP)2-NH2 [Mut5A]	++	+++	−	essentially the same as those shown for Mut5W	−		substantially the same results as those shown for Mut5W
Ac-(PAHGVVAAPDWRPAPGAVAP)2-NH2 [Mut5W]	−	++	−		−		
Ac-(PAHGVVAAPDVRPAPGAVAP)2-NH2 [Mut5V]	−	+++	+++	does little to reduce the affinity	+++	maintain binding	
